Measured values: the kinase profiling compilation of Christmann-Franck et al. (2016)

How the values were obtained:
Assay in all cases: KINOMEscan competition binding
Conditions in all cases: compound 10.0 µM
PHKG2 (human) = PHKG2 (human) (UniProt P15735)
CDK2 (human) = CDK2 (human) (UniProt P24941)
CDK4 CCND3 (human) = CDK4 CCND3 (human) (UniProt P11802+P30281)
CIT (human) = CIT (human) (UniProt O14578)
PTK2B (human) = PTK2B (human) (UniProt Q14289)
ULK2 (human) = ULK2 (human) (UniProt Q8IYT8)
[1] = test system: EGFR (human), P00533 [T790M]
RPS6KA4 KD2 (human) = RPS6KA4 KD2 (human) (UniProt O75676)
Sequence of RPS6KA4 KD2 (human) (O75676 whole entry, looked up): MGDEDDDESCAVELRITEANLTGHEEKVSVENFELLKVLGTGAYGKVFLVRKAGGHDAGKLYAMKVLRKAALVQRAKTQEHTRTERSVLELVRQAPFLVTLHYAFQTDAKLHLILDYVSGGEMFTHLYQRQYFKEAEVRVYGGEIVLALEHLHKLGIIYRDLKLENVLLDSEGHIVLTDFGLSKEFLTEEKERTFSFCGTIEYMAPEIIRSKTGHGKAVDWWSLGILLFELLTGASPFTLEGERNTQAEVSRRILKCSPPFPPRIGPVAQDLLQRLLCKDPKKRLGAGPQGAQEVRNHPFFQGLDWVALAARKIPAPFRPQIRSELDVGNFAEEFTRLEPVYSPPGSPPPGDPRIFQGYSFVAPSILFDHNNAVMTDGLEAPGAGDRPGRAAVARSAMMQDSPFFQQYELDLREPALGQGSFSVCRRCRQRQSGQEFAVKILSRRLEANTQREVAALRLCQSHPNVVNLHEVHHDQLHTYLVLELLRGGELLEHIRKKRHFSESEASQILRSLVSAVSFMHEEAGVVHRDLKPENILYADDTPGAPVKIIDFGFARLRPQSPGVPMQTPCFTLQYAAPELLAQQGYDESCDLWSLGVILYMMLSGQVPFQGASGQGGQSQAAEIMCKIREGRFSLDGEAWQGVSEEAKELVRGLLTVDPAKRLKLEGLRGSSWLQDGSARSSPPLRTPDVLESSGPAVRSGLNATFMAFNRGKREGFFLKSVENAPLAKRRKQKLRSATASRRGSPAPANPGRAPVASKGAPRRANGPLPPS

MAP3K12 (human) = MAP3K12 (human) (UniProt Q12852)
TSSK1B (human) = TSSK1B (human) (UniProt Q9BXA7)
MAP2K6 (human) = MAP2K6 (human) (UniProt P52564)
CDK3 (human) = CDK3 (human) (UniProt Q00526)
RPS6KA6 KD1 (human) = RPS6KA6 KD1 (human) (UniProt Q9UK32)
TEC (human) = TEC (human) (UniProt P42680)
MAP2K5 (human) = MAP2K5 (human) (UniProt Q13163)
YES1 (human) = YES1 (human) (UniProt P07947)
CAMK2G (human) = CAMK2G (human) (UniProt Q13555)
PHKG1 (human) = PHKG1 (human) (UniProt Q16816)
AURKA (human) = AURKA (human) (UniProt O14965)
CPK1 (P.falciparum) = test system: CPK1 (P.falciparum)
MAPK6 (human) = MAPK6 (human) (UniProt Q16659)
RPS6KA6 KD2 (human) = RPS6KA6 KD2 (human) (UniProt Q9UK32)
PIP4K2B (human) = PIP4K2B (human) (UniProt P78356)
Sequence of PIP4K2B (human) (P78356 whole entry, looked up): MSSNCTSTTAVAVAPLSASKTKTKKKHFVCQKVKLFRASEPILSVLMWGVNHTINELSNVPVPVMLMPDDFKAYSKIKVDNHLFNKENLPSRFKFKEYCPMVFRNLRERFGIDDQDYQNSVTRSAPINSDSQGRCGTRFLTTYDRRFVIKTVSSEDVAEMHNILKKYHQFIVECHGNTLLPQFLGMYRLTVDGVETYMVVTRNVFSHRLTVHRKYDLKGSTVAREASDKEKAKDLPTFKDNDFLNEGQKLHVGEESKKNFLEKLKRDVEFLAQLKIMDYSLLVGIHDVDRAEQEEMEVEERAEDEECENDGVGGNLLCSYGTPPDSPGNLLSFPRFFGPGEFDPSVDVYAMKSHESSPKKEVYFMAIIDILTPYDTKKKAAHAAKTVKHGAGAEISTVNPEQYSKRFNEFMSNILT

MKNK1 (human) = MKNK1 (human) (UniProt Q9BUB5)
ACVRL1 (human) = ACVRL1 (human) (UniProt P37023)
NEK9 (human) = NEK9 (human) (UniProt Q8TD19)
Sequence of NEK9 (human) (Q8TD19 whole entry, looked up): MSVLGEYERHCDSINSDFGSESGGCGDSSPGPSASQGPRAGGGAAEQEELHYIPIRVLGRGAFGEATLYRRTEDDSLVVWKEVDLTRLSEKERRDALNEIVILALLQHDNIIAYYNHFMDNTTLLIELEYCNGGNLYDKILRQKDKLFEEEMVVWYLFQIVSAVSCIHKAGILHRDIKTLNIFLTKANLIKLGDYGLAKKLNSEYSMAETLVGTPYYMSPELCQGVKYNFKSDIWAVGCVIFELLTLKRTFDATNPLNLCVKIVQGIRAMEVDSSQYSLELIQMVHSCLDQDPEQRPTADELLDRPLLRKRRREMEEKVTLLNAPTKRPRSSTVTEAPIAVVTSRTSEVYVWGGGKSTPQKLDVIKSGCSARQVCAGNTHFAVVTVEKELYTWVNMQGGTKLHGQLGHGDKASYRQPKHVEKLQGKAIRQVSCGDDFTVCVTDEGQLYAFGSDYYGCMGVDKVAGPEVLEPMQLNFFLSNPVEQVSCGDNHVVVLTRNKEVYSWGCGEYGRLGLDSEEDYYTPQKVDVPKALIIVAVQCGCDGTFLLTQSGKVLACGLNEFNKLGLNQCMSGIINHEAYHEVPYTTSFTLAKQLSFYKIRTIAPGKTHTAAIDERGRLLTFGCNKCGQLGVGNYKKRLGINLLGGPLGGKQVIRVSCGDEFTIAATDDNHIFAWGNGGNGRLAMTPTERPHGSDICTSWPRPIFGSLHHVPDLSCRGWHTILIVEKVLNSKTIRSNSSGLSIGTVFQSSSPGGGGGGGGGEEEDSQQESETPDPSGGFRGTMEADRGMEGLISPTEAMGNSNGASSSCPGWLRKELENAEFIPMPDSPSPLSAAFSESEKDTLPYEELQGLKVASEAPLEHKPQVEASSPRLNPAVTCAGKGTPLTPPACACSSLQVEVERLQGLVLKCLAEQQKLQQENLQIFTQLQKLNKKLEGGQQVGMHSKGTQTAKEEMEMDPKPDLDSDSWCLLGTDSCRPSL

EIF2AK2 (human) = EIF2AK2 (human) (UniProt P19525)
RIOK1 (human) = RIOK1 (human) (UniProt Q9BRS2)
Sequence of RIOK1 (human) (Q9BRS2 whole entry, looked up): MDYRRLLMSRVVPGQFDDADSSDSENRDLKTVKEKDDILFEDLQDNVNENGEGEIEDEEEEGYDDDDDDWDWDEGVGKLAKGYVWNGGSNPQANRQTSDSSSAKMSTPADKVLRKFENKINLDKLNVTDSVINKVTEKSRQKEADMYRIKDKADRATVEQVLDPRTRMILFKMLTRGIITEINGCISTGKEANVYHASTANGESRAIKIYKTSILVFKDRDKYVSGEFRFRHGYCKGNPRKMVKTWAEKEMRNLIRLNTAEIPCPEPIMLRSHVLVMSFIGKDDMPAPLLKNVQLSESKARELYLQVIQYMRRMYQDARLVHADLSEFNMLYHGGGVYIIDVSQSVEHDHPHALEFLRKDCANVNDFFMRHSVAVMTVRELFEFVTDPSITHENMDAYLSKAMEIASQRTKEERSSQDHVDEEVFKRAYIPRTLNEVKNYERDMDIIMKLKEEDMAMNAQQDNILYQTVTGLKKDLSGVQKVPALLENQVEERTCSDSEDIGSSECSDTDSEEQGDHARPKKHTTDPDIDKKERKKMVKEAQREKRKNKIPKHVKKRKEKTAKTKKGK

LATS1 (human) = LATS1 (human) (UniProt O95835)
SLK (human) = SLK (human) (UniProt Q9H2G2)
Sequence of SLK (human) (Q9H2G2 whole entry, looked up): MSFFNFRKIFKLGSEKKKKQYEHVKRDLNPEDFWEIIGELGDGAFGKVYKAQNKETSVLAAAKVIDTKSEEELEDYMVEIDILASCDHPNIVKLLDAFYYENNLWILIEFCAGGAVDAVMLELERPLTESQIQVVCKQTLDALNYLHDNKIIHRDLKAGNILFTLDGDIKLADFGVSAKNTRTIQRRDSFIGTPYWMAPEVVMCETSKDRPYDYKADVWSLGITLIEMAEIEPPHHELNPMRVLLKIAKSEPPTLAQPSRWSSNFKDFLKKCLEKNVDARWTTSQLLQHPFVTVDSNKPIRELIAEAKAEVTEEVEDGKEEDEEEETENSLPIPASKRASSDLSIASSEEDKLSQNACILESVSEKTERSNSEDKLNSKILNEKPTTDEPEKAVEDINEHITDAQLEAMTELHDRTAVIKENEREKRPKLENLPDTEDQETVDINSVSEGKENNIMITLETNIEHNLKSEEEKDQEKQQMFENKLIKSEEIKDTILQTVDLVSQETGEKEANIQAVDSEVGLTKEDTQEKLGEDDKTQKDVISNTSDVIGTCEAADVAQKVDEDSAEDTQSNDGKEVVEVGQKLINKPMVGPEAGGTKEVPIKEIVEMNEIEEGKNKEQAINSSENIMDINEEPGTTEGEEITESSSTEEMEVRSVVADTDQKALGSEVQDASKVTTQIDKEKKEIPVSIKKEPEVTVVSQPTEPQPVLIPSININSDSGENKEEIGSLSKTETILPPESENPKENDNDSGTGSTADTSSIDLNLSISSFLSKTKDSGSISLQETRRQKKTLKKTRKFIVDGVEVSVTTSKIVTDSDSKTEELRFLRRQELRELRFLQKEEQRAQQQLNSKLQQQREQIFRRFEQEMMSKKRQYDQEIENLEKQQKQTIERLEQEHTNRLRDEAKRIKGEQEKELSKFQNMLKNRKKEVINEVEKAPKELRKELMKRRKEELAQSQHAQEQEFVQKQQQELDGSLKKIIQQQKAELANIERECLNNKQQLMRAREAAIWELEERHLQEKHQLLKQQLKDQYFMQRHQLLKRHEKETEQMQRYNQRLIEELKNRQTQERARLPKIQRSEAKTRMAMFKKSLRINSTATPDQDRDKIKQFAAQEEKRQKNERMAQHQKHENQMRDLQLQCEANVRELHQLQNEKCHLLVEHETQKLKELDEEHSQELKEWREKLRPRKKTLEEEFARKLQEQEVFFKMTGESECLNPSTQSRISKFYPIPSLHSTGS

CSNK1A1 (human) = CSNK1A1 (human) (UniProt P48729)
[2] = target: TYK2 JH1 catalytic (human) (UniProt P29597)
MST1R (human) = MST1R (human) (UniProt Q04912)
RPS6KA2 KD2 (human) = RPS6KA2 KD2 (human) (UniProt Q15349)

Sequence of ULK2 (human) (Q8IYT8 whole entry, looked up): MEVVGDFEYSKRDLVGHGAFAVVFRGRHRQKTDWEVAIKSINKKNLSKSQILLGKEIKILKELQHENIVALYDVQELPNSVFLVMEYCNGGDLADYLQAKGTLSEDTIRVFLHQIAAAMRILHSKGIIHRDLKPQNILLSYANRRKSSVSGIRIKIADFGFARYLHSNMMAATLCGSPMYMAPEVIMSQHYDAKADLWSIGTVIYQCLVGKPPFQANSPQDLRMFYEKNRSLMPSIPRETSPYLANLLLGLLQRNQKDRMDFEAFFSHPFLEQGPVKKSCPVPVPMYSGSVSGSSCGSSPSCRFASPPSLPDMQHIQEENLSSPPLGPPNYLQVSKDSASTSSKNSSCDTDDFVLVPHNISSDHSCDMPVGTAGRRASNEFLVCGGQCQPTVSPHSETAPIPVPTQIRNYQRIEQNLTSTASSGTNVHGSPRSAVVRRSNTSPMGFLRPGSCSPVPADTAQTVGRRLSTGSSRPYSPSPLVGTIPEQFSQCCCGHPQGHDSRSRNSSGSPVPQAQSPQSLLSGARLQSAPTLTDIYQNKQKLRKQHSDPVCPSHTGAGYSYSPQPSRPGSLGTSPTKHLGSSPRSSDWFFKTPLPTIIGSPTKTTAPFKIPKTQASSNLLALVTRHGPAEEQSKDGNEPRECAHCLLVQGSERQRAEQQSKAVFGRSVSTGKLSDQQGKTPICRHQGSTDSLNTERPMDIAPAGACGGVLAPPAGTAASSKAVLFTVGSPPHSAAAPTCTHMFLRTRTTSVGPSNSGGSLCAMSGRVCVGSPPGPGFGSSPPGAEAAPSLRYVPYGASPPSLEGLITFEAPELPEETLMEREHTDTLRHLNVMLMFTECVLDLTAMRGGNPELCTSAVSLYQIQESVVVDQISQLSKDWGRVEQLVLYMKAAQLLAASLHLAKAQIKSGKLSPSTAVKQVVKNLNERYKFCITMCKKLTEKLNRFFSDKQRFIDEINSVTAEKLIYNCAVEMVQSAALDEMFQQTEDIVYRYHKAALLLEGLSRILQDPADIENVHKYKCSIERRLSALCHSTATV

SMILES	kinase still bound, per cent of control (PHKG2 (human)) [%]	kinase still bound, per cent of control (CDK2 (human)) [%]	kinase still bound, per cent of control (CDK4 CCND3 (human)) [%]	kinase still bound, per cent of control (CIT (human)) [%]	kinase still bound, per cent of control (ULK2 (human)) [%]	kinase still bound, per cent of control (RPS6KA4 KD2 (human)) [%]	kinase still bound, per cent of control (MAP3K12 (human)) [%]	kinase still bound, per cent of control (TSSK1B (human)) [%]	kinase still bound, per cent of control (MAP2K6 (human)) [%]	kinase still bound, per cent of control (CDK3 (human)) [%]	kinase still bound, per cent of control (TEC (human)) [%]	kinase still bound, per cent of control (MAP2K5 (human)) [%]	kinase still bound, per cent of control (YES1 (human)) [%]	kinase still bound, per cent of control (PHKG1 (human)) [%]	kinase still bound, per cent of control (MAPK6 (human)) [%]	kinase still bound, per cent of control (RPS6KA6 KD2 (human)) [%]	kinase still bound, per cent of control (PIP4K2B (human)) [%]	kinase still bound, per cent of control (MKNK1 (human)) [%]	kinase still bound, per cent of control (ACVRL1 (human)) [%]	kinase still bound, per cent of control (NEK9 (human)) [%]	further results
O=c1cc(N2CCOCC2)oc2c(-c3cccc4c3sc3ccccc34)cccc12	99	75	100	85	98	100	90	83	73	100	89	98	94	100	100	79	100	100	94	93	kinase still bound, per cent of control (PTK2B (human)): 94%; kinase still bound, per cent of control [1]: 100%; kinase still bound, per cent of control (RPS6KA6 KD1 (human)): 71%; kinase still bound, per cent of control (CAMK2G (human)): 86%; kinase still bound, per cent of control (AURKA (human)): 98%; kinase still bound, per cent of control (CPK1 (P.falciparum)): 98%; kinase still bound, per cent of control (EIF2AK2 (human)): 72%; kinase still bound, per cent of control (RIOK1 (human)): 100%; kinase still bound, per cent of control (LATS1 (human)): 100%; kinase still bound, per cent of control (SLK (human)): 100%; kinase still bound, per cent of control (CSNK1A1 (human)): 78%; kinase still bound, per cent of control [2]: 75%; kinase still bound, per cent of control (MST1R (human)): 97%; kinase still bound, per cent of control (RPS6KA2 KD2 (human)): 83%
CNC(=O)c1cc(Oc2ccc(NC(=O)Nc3ccc(Cl)c(C(F)(F)F)c3)cc2)ccn1	100	33	79	17	89	89	57	78	76	52	100	0.3	69	90	100	38	94	2.1	77	79	kinase still bound, per cent of control (PTK2B (human)): 100%; kinase still bound, per cent of control (AURKA (human)): 80%; kinase still bound, per cent of control (CPK1 (P.falciparum)): 0.95%; kinase still bound, per cent of control (EIF2AK2 (human)): 73%; kinase still bound, per cent of control (RIOK1 (human)): 100%; kinase still bound, per cent of control (LATS1 (human)): 79%; kinase still bound, per cent of control (SLK (human)): 15%; kinase still bound, per cent of control (CSNK1A1 (human)): 100%; kinase still bound, per cent of control [2]: 70%; kinase still bound, per cent of control (MST1R (human)): 74%; kinase still bound, per cent of control (RPS6KA2 KD2 (human)): 81%
C[C@@H](Oc1cc(-c2cnn(C3CCNCC3)c2)cnc1N)c1c(Cl)ccc(F)c1Cl	32	81	39	62	4.7	50	9	40	54	100	100	54	17	100	90	35	3.8	100	45	6.2	kinase still bound, per cent of control (RPS6KA6 KD1 (human)): 46%; kinase still bound, per cent of control (CAMK2G (human)): 100%; kinase still bound, per cent of control (EIF2AK2 (human)): 43%; kinase still bound, per cent of control (RIOK1 (human)): 3.4%; kinase still bound, per cent of control (LATS1 (human)): 100%; kinase still bound, per cent of control (SLK (human)): 0.1%; kinase still bound, per cent of control (CSNK1A1 (human)): 61%; kinase still bound, per cent of control [2]: 14%; kinase still bound, per cent of control (RPS6KA2 KD2 (human)): 28%
COCC(=O)NC/C=C/c1ccc2ncnc(Nc3ccc(Oc4ccc(C)nc4)c(C)c3)c2c1	86	92	100	76	100	100	92	100	93	100	73	0.2	65	100	100	88	100	100	84	82	kinase still bound, per cent of control (PTK2B (human)): 80%; kinase still bound, per cent of control (RPS6KA6 KD1 (human)): 96%; kinase still bound, per cent of control (CAMK2G (human)): 94%; kinase still bound, per cent of control (AURKA (human)): 100%; kinase still bound, per cent of control (CPK1 (P.falciparum)): 25%; kinase still bound, per cent of control (EIF2AK2 (human)): 99%; kinase still bound, per cent of control (RIOK1 (human)): 91%; kinase still bound, per cent of control (LATS1 (human)): 100%; kinase still bound, per cent of control (SLK (human)): 60%; kinase still bound, per cent of control (CSNK1A1 (human)): 100%; kinase still bound, per cent of control [2]: 100%; kinase still bound, per cent of control (MST1R (human)): 100%
